In US20240425479A1, “HALO-SUBSTITUTED AMINO AZA-HETEROARYL COMPOUNDS AS INHIBITORS OF THE HAEMATOPOIETIC PROGENITOR KINASE 1 (HPK1)” (priority 2021, published 2024):
Where a name gives a salt, the structure may show the parent alone.

How the values were obtained:
[1] = target: T1, Recombinant (1-346) HPK1 (h) (Homo sapiens, UniProt Q92918); assay: HPK1 human STE kinase enzymatic radiometric assay; format: biochemical; conditions: read-out: HPK1 IC50 nM Range
T1 construct: Recombinant (1-346) HPK1 (h) is incubated with 8 mM MOPS pH 7.0
T1 sequence (Q92918 1-346): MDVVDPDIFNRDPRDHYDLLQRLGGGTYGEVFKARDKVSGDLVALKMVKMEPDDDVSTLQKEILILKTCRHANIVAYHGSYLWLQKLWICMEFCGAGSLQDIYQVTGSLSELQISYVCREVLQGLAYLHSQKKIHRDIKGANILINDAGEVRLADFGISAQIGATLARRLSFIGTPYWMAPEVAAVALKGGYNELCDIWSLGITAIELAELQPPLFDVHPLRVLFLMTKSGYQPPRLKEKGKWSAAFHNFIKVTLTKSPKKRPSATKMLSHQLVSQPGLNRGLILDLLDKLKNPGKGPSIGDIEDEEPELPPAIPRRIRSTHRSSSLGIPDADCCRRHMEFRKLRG
Summary of the method: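 Recombinant HPK1 (1-346) incubated 40 min at RT with 0.33 mg/mL myelin basic protein and [gamma-33P]-ATP in 8 mM MOPS pH 7.0, 0.2 mM EDTA, 10 mM Mg acetate; reaction started with Mg/ATP. Stopped with 0.5% phosphoric acid, spotted on P30 filtermat, washed, scintillation counted. Compounds tested as 9-point 3-fold dilutions.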

Lck (h) = Lck (h) (Homo sapiens, UniProt P06239); assay: Lck human STE kinase enzymatic radiometric assay; format: biochemical; conditions: read-out: Lck IC50 nM Range
Description: (b) Lck Human STE Kinase Enzymatic Radiometric Assay
Lck (h) is incubated with 50 mM Tris pH 7.5, 0.1 mM EGTA, 0.1 mM Na3VO4, 250 uM KVEKIGEGTYGVVYK (Cdc2 peptide), 10 mM MgAcetate and [gamma-33P]-ATP (specific activity and concentration as required). The reaction is initiated by the addition of the Mg/ATP mix. After incubation for 40 minutes at room temperature, the reaction is stopped by the addition of phosphoric acid to a concentration of 0.5%, 10 μL of the reaction is then spotted onto a P30 filtermat and washed four times for 4 minutes in 0.425% phosphoric acid and once in methanol prior to drying and scintillation counting. For more details on the kinase assay procedures see: Gao, Y. et. al.; Biochem J., 451 (2): 313-328, 2013.

Sequence of Lck (h) (P06239 whole entry): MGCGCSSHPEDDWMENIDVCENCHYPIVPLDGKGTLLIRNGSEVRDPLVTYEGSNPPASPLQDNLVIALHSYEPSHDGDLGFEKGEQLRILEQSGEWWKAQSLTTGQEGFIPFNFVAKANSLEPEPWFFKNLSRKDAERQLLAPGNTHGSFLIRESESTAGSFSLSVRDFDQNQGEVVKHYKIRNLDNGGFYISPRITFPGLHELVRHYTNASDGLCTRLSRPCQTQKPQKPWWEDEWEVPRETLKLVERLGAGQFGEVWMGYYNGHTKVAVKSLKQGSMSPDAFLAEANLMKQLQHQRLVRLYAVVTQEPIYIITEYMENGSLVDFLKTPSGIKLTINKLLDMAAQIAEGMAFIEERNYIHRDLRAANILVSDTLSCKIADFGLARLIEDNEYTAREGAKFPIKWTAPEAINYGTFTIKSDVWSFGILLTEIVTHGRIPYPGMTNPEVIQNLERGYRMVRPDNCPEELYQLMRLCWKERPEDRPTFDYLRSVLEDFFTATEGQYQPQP

## CN1C[C@@H]2C[C@]2(c2ccc(-c3nc(-c4cc5c(cc4F)C(=O)NCC5)c(N)nc3F)cc2)C1 [Example I-5, 6-(3-amino-5-fluoro-6-(4-((1S,5R)-3-methyl-3-azabicyclo[3.1.0]hexan-1-yl)phenyl)pyrazin-2-yl)-7-fluoro-3,4-dihydroisoquinolin-1(2H)-one]
[1]
  IC50: 0.1 to 10 nM
Lck (h)
  IC50: > 1000 nM

## CC(C)N1CCN(c2ccc(-c3nc(-c4ccc5c(c4)CCNC5=O)c(N)nc3F)cc2)CC1 [Example I-1, 6-(3-amino-5-fluoro-6-(4-(4-isopropylpiperazin-1-yl)phenyl)pyrazin-2-yl)-3,4-dihydroisoquinolin-1(2H)-one]
[1]
  IC50: 0.1 to 10 nM
Lck (h)
  IC50: > 1000 nM

## CC(C)N1C[C@H]2C[C@@]2(c2ccc(-c3nc(-c4cc(F)c5c(c4)CCNC5=O)c(N)nc3F)cc2)C1 [Example I-15, 6-(3-amino-5-fluoro-6-(4-((1R,5S)-3-isopropyl-3-azabicyclo[3.1.0]hexan-1-yl)phenyl)pyrazin-2-yl)-8-fluoro-3,4-dihydroisoquinolin-1(2H)-one formate]
[1]
  IC50: 0.1 to 10 nM
Lck (h)
  IC50: > 1000 nM

## CC(C)N1CCN(c2ccc(-c3nc(-c4ccc5c(=O)[nH]cc(Cl)c5c4)c(N)nc3F)cc2)CC1 [Example I-78, 6-(3-amino-5-fluoro-6-(4-(4-isopropylpiperazin-1-yl)phenyl)pyrazin-2-yl)-4-chloroisoquinolin-1(2H)-one]
[1]
  IC50: 0.1 to 10 nM
Lck (h)
  IC50: 101 to 1000 nM

## CC(C)N1CCN(c2ccc(-c3nc(-c4cc5c(cc4F)C(=O)NCC5)c(N)nc3F)cc2)CC1 [Example I-2, 6-(3-amino-5-fluoro-6-(4-(4-isopropylpiperazin-1-yl)phenyl)pyrazin-2-yl)-7-fluoro-3,4-dihydroisoquinolin-1(2H)-one]
[1]
  IC50: 0.1 to 10 nM
Lck (h)
  IC50: > 1000 nM

## Nc1nc(F)c(-c2ccc(N3CCN(CC4CC4)CC3)cc2)nc1-c1ccc2c(=O)[nH]ccc2c1 [Example I-23, 6-(3-amino-6-(4-(4-(cyclopropylmethyl)piperazin-1-yl)phenyl)-5-fluoropyrazin-2-yl)isoquinolin-1(2H)-one]
[1]
  IC50: 0.1 to 10 nM
Lck (h)
  IC50: > 1000 nM

## Cc1[nH]c(=O)c2ccc(-c3nc(-c4ccc(C5CCOCC5)c(CN(C)C)c4)c(F)nc3N)cc2c1F [Example I-97, 6-(3-amino-6-(3-((dimethylamino)methyl)-4-(tetrahydro-2H-pyran-4-yl)phenyl)-5-fluoropyrazin-2-yl)-4-fluoro-3-methylisoquinolin-1(2H)-one]
[1]
  IC50: 0.1 to 10 nM
Lck (h)
  IC50: > 1000 nM

## CN1C[C@@H]2C[C@]2(c2ccc(-c3nc(-c4ccc5c(=O)[nH]cc(F)c5c4)c(N)nc3F)cc2)C1 [Example I-80, 6-(3-amino-5-fluoro-6-(4-((1S,5R)-3-methyl-3-azabicyclo[3.1.0]hexan-1-yl)phenyl)pyrazin-2-yl)-4-fluoroisoquinolin-1(2H)-one]
[1]
  IC50: 0.1 to 10 nM
Lck (h)
  IC50: > 1000 nM

## Nc1nc(F)c(-c2ccc(N3CCOCC3)c(CN3CCC3)c2)nc1-c1cc2c(cc1F)C(=O)NCC2 [Example I-145, 6-(3-amino-6-(3-(azetidin-1-ylmethyl)-4-morpholinophenyl)-5-fluoropyrazin-2-yl)-7-fluoro-3,4-dihydroisoquinolin-1(2H)-one]
[1]
  IC50: 0.1 to 10 nM
Lck (h)
  IC50: > 1000 nM

## CN1C[C@H]2C[C@@]2(c2ccc(-c3nc(-c4cc5c(cc4F)C(=O)NCC5)c(N)nc3F)cc2)C1 [Example I-3, 6-(3-amino-5-fluoro-6-(4-((1R,5S)-3-methyl-3-azabicyclo[3.1.0]hexan-1-yl)phenyl)pyrazin-2-yl)-7-fluoro-3,4-dihydroisoquinolin-1(2H)-one]
[1]
  IC50: 0.1 to 10 nM
Lck (h)
  IC50: > 1000 nM

## Nc1nc(F)c(-c2ccc(N3CCOCC3)cc2)nc1-c1cc(F)c2c(=O)[nH]ccc2c1 [Example I-36, 6-(3-amino-5-fluoro-6-(4-morpholinophenyl)pyrazin-2-yl)-8-fluoroisoquinolin-1(2H)-one]
[1]
  IC50: 0.1 to 10 nM
Lck (h)
  IC50: > 1000 nM

## C[C@@H]1CN(c2ccc(-c3nc(-c4cc5c(cc4F)C(=O)NCC5)c(N)nc3F)cc2CN(C)C)CCO1 [Example I-173, (R)-6-(3-amino-6-(3-((dimethylamino)methyl)-4-(2-methylmorpholino)phenyl)-5-fluoropyrazin-2-yl)-7-fluoro-3,4-dihydroisoquinolin-1(2H)-one]
[1]
  IC50: 0.1 to 10 nM
Lck (h)
  IC50: 101 to 1000 nM

## CC(C)N1CCN(c2ccc(-c3nc(-c4cc5c(cc4F)C(=O)NCC5)c(N)nc3Cl)cc2)CC1 [Example I-8, 6-(3-amino-5-chloro-6-(4-(4-isopropylpiperazin-1-yl)phenyl)pyrazin-2-yl)-7-fluoro-3,4-dihydroisoquinolin-1(2H)-one]
[1]
  IC50: 11 to 100 nM
Lck (h)
  IC50: > 1000 nM

## COC1CCN(Cc2cc(-c3nc(-c4ccc5c(c4)CCNC5=O)c(N)nc3F)ccc2N2CCOCC2)C1 (stereo not drawn) [Example I-133, 6-(3-amino-5-fluoro-6-(3-((3-methoxypyrrolidin-1-yl)methyl)-4-morpholinophenyl)pyrazin-2-yl)-3,4-dihydroisoquinolin-1(2H)-one]
[1]
  IC50: 0.1 to 10 nM
Lck (h)
  IC50: > 1000 nM

## CCN(C)Cc1cc(-c2nc(-c3cc(F)c4c(c3)CCNC4=O)c(N)nc2F)ccc1C1CCOCC1 [Example I-165, 6-(3-amino-6-(3-((ethyl(methyl)amino)methyl)-4-(tetrahydro-2H-pyran-4-yl)phenyl)-5-fluoropyrazin-2-yl)-8-fluoro-3,4-dihydroisoquinolin-1(2H)-one]
[1]
  IC50: 0.1 to 10 nM
Lck (h)
  IC50: > 1000 nM

## CCN(C)Cc1cc(-c2nc(-c3ccc4c(=O)[nH]cc(F)c4c3)c(N)nc2F)ccc1C1CCOCC1 [Example I-238, 6-(3-amino-6-(3-((ethyl(methyl)amino)methyl)-4-(tetrahydro-2H-pyran-4-yl)phenyl)-5-fluoropyrazin-2-yl)-4-fluoroisoquinolin-1(2H)-one]
[1]
  IC50: 0.1 to 10 nM
Lck (h)
  IC50: > 1000 nM

## Nc1nc(F)c(-c2ccc(C3CCN(CC4CC4)CC3)cc2)nc1-c1cc(F)c2c(c1)CCNC2=O [Example I-13, 6-(3-amino-6-(4-(1-(cyclopropylmethyl)piperidin-4-yl)phenyl)-5-fluoropyrazin-2-yl)-8-fluoro-3,4-dihydroisoquinolin-1(2H)-one Formate]
[1]
  IC50: 0.1 to 10 nM
Lck (h)
  IC50: > 1000 nM

## Cc1nc2cc(-c3nc(-c4ccc(C5CCOCC5)c(CN(C)C)c4)c(F)nc3N)cc(F)c2c(=O)[nH]1 [Example I-91, 7-(3-amino-6-(3-((dimethylamino)methyl)-4-(tetrahydro-2H-pyran-4-yl)phenyl)-5-fluoropyrazin-2-yl)-5-fluoro-2-methylquinazolin-4(3H)-one]
[1]
  IC50: 0.1 to 10 nM
Lck (h)
  IC50: > 1000 nM

## Nc1nc(F)c(-c2ccc(C3CCOCC3)c(CN3CCC3)c2)nc1-c1cc(F)c2c(c1)CCNC2=O [Example I-171, 6-(3-amino-6-(3-(azetidin-1-ylmethyl)-4-(tetrahydro-2H-pyran-4-yl)phenyl)-5-fluoropyrazin-2-yl)-8-fluoro-3,4-dihydroisoquinolin-1(2H)-one]
[1]
  IC50: 0.1 to 10 nM
Lck (h)
  IC50: 101 to 1000 nM

## Cc1cc2cc(-c3nc(-c4ccc(C5CCOCC5)c(CN(C)C)c4)c(F)nc3N)cc(F)c2c(=O)[nH]1 [Example I-100, 6-(3-amino-6-(3-((dimethylamino)methyl)-4-(tetrahydro-2H-pyran-4-yl)phenyl)-5-fluoropyrazin-2-yl)-8-fluoro-3-methylisoquinolin-1(2H)-one]
[1]
  IC50: 0.1 to 10 nM
Lck (h)
  IC50: > 1000 nM

## Nc1nc(F)c(-c2ccc(N3CCN(CC4CC4)CC3)cc2)nc1-c1cc2cc[nH]c(=O)c2cc1F [Example I-25, 6-(3-amino-6-(4-(4-(cyclopropylmethyl)piperazin-1-yl)phenyl)-5-fluoropyrazin-2-yl)-7-fluoroisoquinolin-1(2H)-one]
[1]
  IC50: 0.1 to 10 nM
Lck (h)
  IC50: 101 to 1000 nM

## CNCC1Cc2cc(-c3nc(-c4ccc(N5CCOCC5)cc4)c(F)nc3N)ccc2C(=O)N1 (stereo not drawn) [Example I-12, 6-(3-amino-5-fluoro-6-(4-morpholinophenyl)pyrazin-2-yl)-3-((methylamino)methyl)-3,4-dihydroisoquinolin-1(2H)-one]
[1]
  IC50: 0.1 to 10 nM
Lck (h)
  IC50: > 1000 nM

## Cc1[nH]c(=O)c2c(F)cc(-c3nc(-c4ccc(C5CCOCC5)c(CN(C)C)c4)c(F)nc3N)cc2c1F [Example I-117, 6-(3-amino-6-(3-((dimethylamino)methyl)-4-(tetrahydro-2H-pyran-4-yl)phenyl)-5-fluoropyrazin-2-yl)-4,8-difluoro-3-methylisoquinolin-1(2H)-one]
[1]
  IC50: 0.1 to 10 nM
Lck (h)
  IC50: > 1000 nM

## CC(C)N1CCN(c2ccc(-c3nc(-c4cc(F)c5c(=O)[nH]cc(F)c5c4)c(N)nc3F)cc2)CC1 [Example I-85, 6-(3-amino-5-fluoro-6-(4-(4-isopropylpiperazin-1-yl)phenyl)pyrazin-2-yl)-4,8-difluoroisoquinolin-1(2H)-one]
[1]
  IC50: 0.1 to 10 nM
Lck (h)
  IC50: > 1000 nM
